Patent publication US11466010B2, “Toll-like receptor 8 (TLR8) specific antagonists and methods of making and uses thereof” (The Regents of the University of Colorado, a body corporate, priority 2017, dated 2022)

Biological target: T1, TLR8 (Homo sapiens, UniProt Q9NR97)
T1 construct: hTLR8, residues 27-827; made in house
T1 sequence (Q9NR97 27-827): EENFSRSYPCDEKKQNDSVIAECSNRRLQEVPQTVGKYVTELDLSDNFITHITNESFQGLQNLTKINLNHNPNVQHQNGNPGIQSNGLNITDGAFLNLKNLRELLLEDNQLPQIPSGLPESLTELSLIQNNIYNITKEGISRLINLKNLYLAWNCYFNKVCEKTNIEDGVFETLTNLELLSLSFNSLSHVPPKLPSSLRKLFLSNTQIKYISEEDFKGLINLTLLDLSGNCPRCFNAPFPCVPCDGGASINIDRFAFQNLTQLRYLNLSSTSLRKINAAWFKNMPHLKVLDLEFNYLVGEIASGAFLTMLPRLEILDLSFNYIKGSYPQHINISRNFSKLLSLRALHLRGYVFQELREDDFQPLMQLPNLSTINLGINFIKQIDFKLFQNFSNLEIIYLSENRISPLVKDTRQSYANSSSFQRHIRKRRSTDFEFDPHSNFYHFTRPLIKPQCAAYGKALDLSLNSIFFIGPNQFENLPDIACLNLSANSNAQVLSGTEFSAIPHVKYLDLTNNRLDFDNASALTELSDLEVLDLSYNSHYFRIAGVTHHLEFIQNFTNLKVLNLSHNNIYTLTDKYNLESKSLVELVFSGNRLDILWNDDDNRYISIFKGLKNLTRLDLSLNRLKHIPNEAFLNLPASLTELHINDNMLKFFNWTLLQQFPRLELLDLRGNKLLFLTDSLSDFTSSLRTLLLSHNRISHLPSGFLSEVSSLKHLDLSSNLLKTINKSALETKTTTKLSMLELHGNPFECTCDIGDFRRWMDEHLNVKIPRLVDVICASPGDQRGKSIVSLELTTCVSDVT
Assay: Gel filtration chromatography of TLR8 dimerization
Format: binding
Details: diluted TLR8, dose-dependent
Experimental: Gel filtration chromatography with diluted TLR8 proteins, in which TLR8 exists as a monomer, was conducted to determine the dimerization state of TLR8 in the absence and presence of different ligands (FIGS. 10A and 10B).

retention volume of TLR8 (dimer stabilization in solution): smaller retention volume
SMILES: Cc1cc(-c2ccnc3cc(O)ccc23)ccc1O [Compound 11b, 2-Methyl-4-(7-hydroxyl-4-quinolinyl)-phenol]
